Test results from patent US4795639A, “Potentiating formulations” (priority 1971, dated 1989).
Several values for one entry are separate records, joined by “and”; a condition that tells them apart may be missing. Equal values may be shown once.

Experiments:
HMPPS and `synthetase` = assay: control tubes with source of both HMPPS and `synthetase`, labelled pAB, chromatographic analysis; format: biochemical, E. coli; conditions: 1 × 10^-5 M
Procedure: (§1) Control tubes 10 to 12 include a source of both HMPPS and synthetase, unlabelled ATP, 0.1M MgCl2.6H2 O and labelled pAB.
Two control test tubes were prepared, each containing ATP (10 μl, 0.1M), MgCl2.6H2 O (10 μl, 0.1M), dithiothreitol (20 μl, 0.1M) tris buffer (20 μl, 0.4M, pH 8.3), pAB-C^14 (10 μl, 0.4 mM), and 20 μl of a solution containing HMPPS and `synthetase` of known activity. The test compound was added to the second of these two tubes up to a final concentration of 10^-5 M, and both tubes were made up with distilled water to 200 μl.
(§2) All seven tubes were then incubated for 30 minutes at 37° C., chilled on ice and then these, together with control tubes 10 to 12 from part (a), were chromatographically analysed as follows:
(§3) 100 μl of the contents of each of the tubes was spotted onto Whatman No. 3 MM chromatography paper (2×20 cm) at the `origin`, the run descending in a Sorenson buffer of potassium and sodium phosphates (0.1M, pH 7.0) for 10 to 15 cm.

[1] = molecular target: T1, dihydropteroate synthetase (Escherichia coli, UniProt P0AC13); assay: `synthetase` assay: formation of dihydropteroate-C^14; format: biochemical, E. coli
T1 construct: incubating an extract of E. coli with pAB-7-C^14; endogenous in cells; host or cells: E. coli extract (synthetase separated from HMPPS on Sephadex G-100, as concluded from part (a))
Procedure: (b) The activity of the test compound against `synthetase` was determined as follows, by monitoring the formulation of dihydropteroate-C^14.
A pool of Pt was prepared from ATP neutralised (50 μl, 0.1M), MgCl2.6H2 O (50 μl, 0.1M), dithiothreitol (100 μl, 0.1M), tris buffer (100 μl, 0.4M, pH 8.3), HMPt (25 μl, 876 μM) and 170 μl of a solution containing HMPPS. The mixture was incubated for 60 minutes at 37° C., chilled briefly on ice and then dextrose (100 μl containing 72.1 mg/ml) and hexokinase (20 μl containing 2000 units/ml) were added at room temperature to the solution, which was allowed to stand at this temperature for 15 minutes.
A solution of MgCl2.6H2 O (10 μl, 0.1M), pAB-C^14 (10 μl, 0.4 mM), dithiothreitol (20 μl, 0.1M) and tris buffer (20 μl, 0.4M, pH8.3) was made in each of five test tubes and then 80 μl of the contents of the pool added to each, together with synthetase and/or test compound as indicated in TABLE 2. The solution was then made up to 200 μl with distilled water.
as §2, §3

Escherichia coli CN 314 = assay: testing discs on standard nutrient medium; format: cell-based; conditions: Escherichia coli, CN314; read-out: Size of zone in cm (×6 magnification)
[2] = molecular target: T2, hydroxymethyldihydropteridine pyrophosphokinase (HMPPS) (Escherichia coli, UniProt P26281); assay: HMPPS assay: transfer of terminal phosphate of ATP-γ-P^32 to Pt; format: biochemical, E. coli
T2 construct: obtained from an extract of E. coli; endogenous in cells; host or cells: E. coli extract; HMPPS separated from synthetase on Sephadex G-100 (method of Richey and Brown 1969)
Description: (a) An assay for HMPPS was developed in which the transfer of the terminal phosphate of ATP-γ-P^32 to Pt could be monitored and correlated with the amount of inhibition of HMPPS by the compound under test.
The compound under test was incorporated into various formulations comprising metabolites and enzymes contained in test tubes, as indicated in TABLE 1.
II--a source of HMMP S, obtained from an extract of E. coli and separated from `synthetase` on Sephadex G-100, according to the method of Richey and Brown in J. Biol. Chem. 244, 1582-1592 (1969)
as §1
Tubes 1 to 9 containing the amounts of components shown in the Table, were filled up to 200 μl with distilled water, incubated for 60 minutes at 37° C. and then chilled on ice. Dextrose (20 μl containing 72.1 mg/ml) and hexokinase (5 μl containing 2000 units/ml) were added to the solution, which was then allowed to stand at room temperature for 15 minutes. `Darco-G-60` (Registered Trade Mark) (10 mg) was added to each tube and the contents mixed periodically for 10 minutes. The charcoal was removed through a "Millipore AP 250 2200" (Registered Trade Mark) filter and the filter was washed with three 10 ml portions of cold water. The Charcoal and the filter were then radioactively counted.
The radioactive count from the contents of tubes 2 and 3 was taken as the maximum count, since these tubes contained no test compound and thus gave 0% enzyme inhibition. The percentage inhibition produced by the contents of the remaining tubes could then be calculated by relating their radioactive count to the maximum, as determined above.

Staphylococcus aureus = assay: M.I.C. in Wellcome Nutrient Agar, 18 hours at 37° C.; format: cell-based
[3] = final concn. 0.93 × 10^-4 M, tubes 8, 9

T2 sequence (P26281 whole entry): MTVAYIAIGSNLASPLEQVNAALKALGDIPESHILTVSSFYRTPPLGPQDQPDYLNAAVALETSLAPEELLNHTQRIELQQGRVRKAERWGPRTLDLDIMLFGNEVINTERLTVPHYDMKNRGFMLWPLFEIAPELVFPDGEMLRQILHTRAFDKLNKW
T1 sequence (P0AC13 whole entry): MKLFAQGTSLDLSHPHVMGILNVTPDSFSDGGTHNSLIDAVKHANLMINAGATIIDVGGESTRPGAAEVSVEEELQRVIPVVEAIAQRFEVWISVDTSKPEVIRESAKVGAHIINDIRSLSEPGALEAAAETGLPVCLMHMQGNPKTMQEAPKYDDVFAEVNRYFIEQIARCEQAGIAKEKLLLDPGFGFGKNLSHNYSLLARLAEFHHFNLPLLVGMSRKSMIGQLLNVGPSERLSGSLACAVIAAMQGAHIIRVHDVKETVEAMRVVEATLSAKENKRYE

CC1(C)Nc2nc(N)nc(O)c2N=C1CO [DMHP, 2-amino-4-hydroxy-6-hydroxymethyl-7,7-dimethyl-7,8-dihydropteridine]
% Inhibn. (HMPPS and `synthetase`; Table 1 control tube 12): 79% | % Inhibn. (HMPPS and `synthetase`; Table 2 control tube 7): 83% | inhibition at 10 µM ([1]; final concentration 1 × 10^-5 M): 0% | inhibition at 2.5 µM ([1]; final concentration 2.5 × 10^-6 M): 5% | inhibition at 87 µM ([1]; final concentration 8.7 × 10^-5 M): 9% | zone of inhibition at 100 µg/disc (Escherichia coli CN 314): 0 mm | IC50 [2]: 2 to 4 µM | % Inhibn. [2, 3]: 95% | inhibition at 93 µM [2, 3]: 98% | % Inhibn. ([2]; final concn. 1 × 10^-5 M, tubes 6, 7): 87% and 55% | inhibition at 2.5e-10 µM ([2]; read-out: % Inhibn., test compound final concn., tubes 4, 5): 44% | % Inhibn. ([2]; test compound final concn., tubes 4, 5): 33% | Sulphamethoxazole increase in Activity (Staphylococcus aureus; Conc. of DMHP 3.1 μg/ml): 1 × | Trimethoprim in the Presence of × 20 sulphamethoxazol increase in Activity (Staphylococcus aureus; Conc. of DMHP 3.1 μg/ml): 10 × | Trimethoprim increase in Activity (Staphylococcus aureus; Conc. of DMHP 3.1 μg/ml): 10 × | Sulphamethoxazole increase in Activity (Staphylococcus aureus; Conc. of DMHP 6.2 μg/ml): 10 × | Trimethoprim in the Presence of × 20 sulphamethoxazol increase in Activity (Staphylococcus aureus; Conc. of DMHP 6.2 μg/ml): 30 × | Trimethoprim increase in Activity (Staphylococcus aureus; Conc. of DMHP 6.2 μg/ml): 30 × | Sulphamethoxazole increase in Activity (Staphylococcus aureus; Conc. of DMHP 25 μg/ml): 100 × | Trimethoprim in the Presence of × 20 sulphamethoxazol increase in Activity (Staphylococcus aureus; Conc. of DMHP 25 μg/ml): > 300 × | Trimethoprim increase in Activity (Staphylococcus aureus; Conc. of DMHP 25 μg/ml): 300 ×
